Values of other authors in patent US6417191B1, “Synergistic combinations of zidovudine, 1592U89 and 3TC” (GlaxoSmithKline, priority 1995, dated 2002).
Where two headings read alike, the source gives them in different places.

Key:
[1] = plasma, patients, therapeutic doses of each drug as a single agent

SMILES: Nc1nc(NC2CC2)c2ncn([C@H]3C=C[C@@H](CO)C3)c2n1 (relative stereo) [1592U89, (1S,4R)-cis-4-[2-amino-6-(cyclopropylamino)-9H-purin-9-yl]-2-cyclopentene-1-methanol]
- activity against HIV (HIV): potent activity against HIV
- Peak Level (in vivo): 3.5 µM
- Trough Level (in vivo): 0.1 µM

SMILES: Nc1nc(=O)n([C@@H]2CS[C@H](CO)O2)cc1F (relative stereo) [FTC, (2R,cis)-4-amino-5-fluoro-1-(2-hydroxymethyl-1,3-oxathiolan-5-yl)-(1H)-pyrimidin-2-one]
- Peak Level (in vivo): 10 µM
- Trough Level (in vivo): 0.5 µM

SMILES: Nc1ccn([C@@H]2CS[C@H](CO)O2)c(=O)n1 (single isomer, unassigned) [3TC]
- Peak Level [1]: 9 µM
- Trough Level [1]: 0.7 µM

SMILES: Cc1cn([C@H]2C[C@H](N=[N+]=[N-])[C@@H](CO)O2)c(=O)[nH]c1=O [zidovudine, 3′-azido-3′-deoxythymidine]
- Peak Level (in vivo): 5 µM
- Trough Level (in vivo): 0.4 µM

SMILES: Nc1ccn(C2CSC(CO)O2)c(=O)n1 (racemic) [BCH-189, 4-amino-1-(2-hydroxymethyl-1,3-oxathiolan-5-yl)-(1H)-pyrimidin-2-one]
- activity against HIV (HIV): anti-HIV activity
